Like-named read-outs stand apart in the source and are kept apart here.
Columns and labels:
[1] = First-in-human single-ascending-dose study: plasma pharmacokinetics; type: in vivo; conditions: for half-life / Tmax / AUC(0-inf) / Cmax / Vd/F: human, plasma; for Vd/F: read-out: Vz/F
Procedure: (i) First-in-human study. The study was conducted in five fasted cohorts (5, 20, 40, 80, and 120 mg) and one fed 40-mg cohort. The initial dose of 5 mg was chosen in agreement with guidelines on dose selection for first-in-human clinical studies ([15], [16]) and was based on the no-observed-adverse-event level for the most sensitive species observed in preclinical toxicology studies. Doses administered to subsequent cohorts were determined a priori after consideration of interim human pharmacokinetic and safety data.
All subjects in the fasted cohorts were dosed on day 1 after a fasting period of ≥8 h. Water was prohibited from 2 h predose and then allowed ad libitum from 2 h postdose, and standardized meals were provided from 4 h postdose. In the first two cohorts (5 and 20 mg), a sentinel subcohort (n = 2) was dosed on day 1. The safety review team reviewed safety and pharmacokinetic data of these subjects up to day 3 before dosing the rest of these two cohorts and up to day 19 for all cohorts before dose escalation. […] Selected subjects from the fasted cohorts then received 40 mg in a fed state to evaluate the effect of food on the tolerability and pharmacokinetic profile of MMV390048. […] The predose breakfast was in line with FDA guidelines ([13]) and was composed of approximately 800 to 1,000 calories (cal), with 150, 250, and 500 to 600 cal from protein, carbohydrate, and fat, respectively.
Blood samples from the three studies were analyzed at the University of Cape Town Division of Clinical Pharmacology Laboratory. MMV390048 was extracted from plasma using a protein precipitation procedure and analyzed using a liquid chromatography-tandem mass spectrometry assay. The precision (total assay coefficients of variation) for MMV390048 during sample analysis was less than 8% at all quality control levels, including the limit of quantification, which was 0.5 ng ml^−1. The full details of the assay are included in the supplemental material.
Noncompartmental pharmacokinetic analysis was performed using Phoenix WinNonlin Pro version 6.3 (Certara L.P., St. Louis, MO, USA) for the first-in-human and the formulation optimization studies, and using R version 3.2.0 for the IBSM study. Pharmacokinetic endpoints were the peak plasma concentration (Cmax), time at which Cmax is reached (Tmax), area under the concentration-time curve from 0 h to infinity (AUC0–inf), elimination half-life (t½), apparent clearance (CL/F), and apparent volume of distribution (Vz/F).

[2] = Stability in human plasma and whole blood (bioanalytical validation); type: in vitro ADME
Description: page 28: Determination of MMV390048 from 50 µ L human plasma by LC -MS/MS A method was validated for the quantification of MMV390048 in human plasma, and consisted of a protein precipitation extraction, followed by high performance liquid chromatography with MS/MS detection. MMV390048- d3 was used as the internal standard. Analyte mean extraction yield was approximately 106.5 % (CV% = 6.2). The extraction procedure was followed by liquid chromatographic separation using a Waters Atlantis T3 3 μm, 100 x 2.1 mm analytical column. An isocratic mobile phase containing water:acetonitrile (25:75 [v/v]) was used at a flow-rate of 300 μL/min. The retention times for MMV390048 and MMV390048- d3 were 1.16 min and 1.16 min, respectively. An AB Sciex API 4000 mass spectrometer at unit resolution in the multiple reaction monitoring mode was used to monitor the transition of the protonated precursor ions, 394.145 m/z and 397.148 m/z, to the product ions, 297.0 m/z and 297.0 m/z, for MMV390048 and the internal standard, respectively. Electro -spray ionisation was used for ion production. Accuracy and precision were assessed over three consecutive, independent runs. The calibration curve fits a quadratic (weighted by 1/x) regressions for MMV390048 over the ranges 0.500 –2000 ng/mL, based on peak area ratios. The assay was successfully cross- validated on a second/back- up API 4000 instrument. […] Stock solutions of MMV390048 in dimethylsulfoxide was stable for 67 days when stored at -80°C and for 24 hours when stored at room temperature, 4°C and - 20°C. […] Samples with haemolysis greater than 1% were assayed in duplicate to confirm results.

[3] = po, 5 mg, single oral 5 mg fasted, powder-in-bottle, n = 6, geometric mean (CV %)
[4] = po, 20 mg, single oral 20 mg fasted, powder-in-bottle, n = 6, geometric mean (CV %)
[5] = po, 40 mg, single oral 40 mg FED (high-fat breakfast), powder-in-bottle, n = 6, geometric mean (CV %)
[6] = po, 40 mg, single oral 40 mg fasted, powder-in-bottle, n = 6, geometric mean (CV %)
[7] = po, 80 mg, single oral 80 mg fasted, powder-in-bottle, n = 6, geometric mean (CV %)
[8] = po, 120 mg, single oral 120 mg fasted, powder-in-bottle, n = 5, geometric mean (CV %)

Compound: CS(=O)(=O)c1ccc(-c2cnc(N)c(-c3ccc(C(F)(F)F)nc3)c2)cc1 [MMV390048]
- half-life ([1]; oral, all cohorts, powder-in-bottle, read-out: elimination half-life): > 149 h
- Tmax ([1]; oral, fasted cohorts, read-out: median time of maximum concentration (Tmax)): 1 to 2.5 h
- AUC(0-inf) [1, 3]: 2.14 µg·h/mL
- Cmax [1, 3]: 0.0156 µg/mL
- Vd/F [1, 3]: 520 L
- half-life ([1]; po, 5 mg, single oral 5 mg fasted, powder-in-bottle, n = 6, geometric mean (CV %), read-out: t1/2 (converted)): 154 h
- Tmax ([1]; po, 5 mg, single oral 5 mg fasted, powder-in-bottle, n = 6, median (range), read-out: Tmax): 1 h
- AUC(0-inf) [1, 4]: 33.3 µg·h/mL
- Cmax [1, 4]: 0.136 µg/mL
- Vd/F [1, 4]: 266 L
- half-life ([1]; po, 20 mg, single oral 20 mg fasted, powder-in-bottle, n = 6, geometric mean (CV %), read-out: t1/2 (converted)): 306 h
- Tmax ([1]; po, 20 mg, single oral 20 mg fasted, powder-in-bottle, n = 6, median (range), read-out: Tmax): 2 h
- AUC(0-inf) [1, 5]: 34.5 µg·h/mL
- Cmax [1, 5]: 0.155 µg/mL
- Vd/F [1, 5]: 373 L
- half-life ([1]; po, 40 mg, single oral 40 mg FED (high-fat breakfast), powder-in-bottle, n = 6, geometric mean (CV %), read-out: t1/2 (converted)): 223 h
- Tmax ([1]; po, 40 mg, single oral 40 mg FED (high-fat breakfast), powder-in-bottle, n = 6, median (range), read-out: Tmax): 4 h
- AUC(0-inf) [1, 6]: 17.6 µg·h/mL
- Cmax [1, 6]: 0.0744 µg/mL
- Vd/F [1, 6]: 624 L
- half-life ([1]; po, 40 mg, single oral 40 mg fasted, powder-in-bottle, n = 6, geometric mean (CV %), read-out: t1/2 (converted)): 190 h
- Tmax ([1]; po, 40 mg, single oral 40 mg fasted, powder-in-bottle, n = 6, median (range), read-out: Tmax): 2.5 h
- AUC(0-inf) [1, 7]: 62 µg·h/mL
- Cmax [1, 7]: 0.238 µg/mL
- Vd/F [1, 7]: 444 L
- half-life ([1]; po, 80 mg, single oral 80 mg fasted, powder-in-bottle, n = 6, geometric mean (CV %), read-out: t1/2 (converted)): 239 h
- Tmax ([1]; po, 80 mg, single oral 80 mg fasted, powder-in-bottle, n = 6, median (range), read-out: Tmax): 1 h
- AUC(0-inf) [1, 8]: 82.6 µg·h/mL
- Cmax [1, 8]: 0.518 µg/mL
- Vd/F [1, 8]: 432 L
- half-life ([1]; po, 120 mg, single oral 120 mg fasted, powder-in-bottle, n = 5, geometric mean (CV %), read-out: t1/2 (converted)): 206 h
- Tmax ([1]; po, 120 mg, single oral 120 mg fasted, powder-in-bottle, n = 5, median (range), read-out: Tmax): 1 h
- CL/F ([1]; single oral 5 mg fasted, powder-in-bottle, n = 6, geometric mean (CV %)): 2.3 (76.3) liters h^−1
- CL/F ([1]; single oral 20 mg fasted, powder-in-bottle, n = 6, geometric mean (CV %)): 0.6 (17.1) liters h^−1
- CL/F ([1]; single oral 40 mg FED (high-fat breakfast), powder-in-bottle, n = 6, geometric mean (CV %)): 1.2 (67.5) liters h^−1
- CL/F ([1]; single oral 40 mg fasted, powder-in-bottle, n = 6, geometric mean (CV %)): 2.3 (86.8) liters h^−1
- CL/F ([1]; single oral 80 mg fasted, powder-in-bottle, n = 6, geometric mean (CV %)): 1.3 (46.0) liters h^−1
- CL/F ([1]; single oral 120 mg fasted, powder-in-bottle, n = 5, geometric mean (CV %)): 1.5 (165.8) liters h^−1
- stable in human plasma when subjected to freeze-thaw cycles ([2]; freeze-thaw cycles): 3
- stable in whole blood for up to ([2]; on ice): 1 h
- stable in human plasma for ([2]; room temperature): 6 h
- stable in human plasma for up to ([2]; stored at approximately -80°C): 79 days

— publication PMC7179259, “Safety, Tolerability, Pharmacokinetics, and Antimalarial Activity of the Novel Plasmodium Phosphatidylinositol 4-Kinase Inhibitor MMV390048 in Healthy Volunteers” (Antimicrobial Agents and Chemotherapy, 2020)
